Measured values published in the supplement of paper PMC10627819.

Key:
[1] = tested on: B. subtilis 168; assay: Bliss interaction score (quartile over a dose matrix) (fitness difference); higher = more antagonism (negative = synergy)
Method in brief: (§1)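 The Bliss score is observed minus expected fitness under the product model, reported as quartiles over technical, biological and donor/recipient replicates. Fitness is the OD595 at entry into stationary phase divided by the plate's robust no-drug mean and capped at 1. Single-drug fitness was inferred from combination data.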

[2] = tested on: S. pneumoniae D39V; assay: as above
Method in brief: as §1

[3] = tested on: S. aureus Newman; assay: as above
Method in brief: as §1

[4] = tested on: S. aureus DSM 20231; assay: as above
Method in brief: as §1

[5] = tested on: B. subtilis 168; assay: fitness (endpoint OD595 vs no drug) (fraction); higher = more growth
Method in brief: (§2)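 Cultures at OD595 0.01 were dispensed into 384-well plates in TSB, LB Lennox or CY and incubated at 37 °C. Every 30 min for 14 h, OD595 was read and corrected by the first reading. Fitness is the optical density at entry into stationary phase relative to the robust mean of no-drug control wells, capped at 1.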

[6] = tested on: S. aureus Newman; assay: as above
Method in brief: as §2

[7] = tested on: S. aureus DSM 20231; assay: as above
Method in brief: as §2

[8] = tested on: S. pneumoniae D39V; assay: as above
Method in brief: as §2
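Throughout, for Bliss interaction score (quartile over a dose matrix): first quartile when negative (synergy) and third quartile when positive (antagonism).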

CC[C@H]1OC(=O)[C@H](C)[C@@H](O[C@H]2C[C@@](C)(OC)[C@@H](O)[C@H](C)O2)[C@H](C)[C@@H](O[C@@H]2O[C@H](C)C[C@H](N(C)C)[C@H]2O)[C@](C)(O)C[C@@H](C)CN(C)[C@H](C)[C@@H](O)[C@]1(C)O [Azithromycin] + CC1=C\[C@@H](O)CC(=O)Cc2nc(co2)C(=O)N2CCC=C2C(=O)O[C@H](C(C)C)[C@H](C)/C=C/C(=O)NC\C=C\1 [Virginiamycin M1]
Settings | Bliss interaction score
[1] | 0.0627
[2] | 0.0642
[3] | 0.0851
[4] | -0.0726

fitness
Settings | partner 0.0625 µg/mL | partner 0.125 µg/mL | partner 0.25 µg/mL
[5], first compound 0.25 µg/mL | 0.911 | 0.876 | 0.97
[5], first compound 0.5 µg/mL | 0.803 | 0.814 | 0.869
[6], first compound 0.125 µg/mL | 0.912 | 0.904 | 0.912
[6], first compound 0.25 µg/mL | 0.935 | 0.913 | 0.92
[6], first compound 0.5 µg/mL | 0.744 | 0.707 | 0.722
[7], first compound 0.125 µg/mL | 0.817 | 0.872 | 0.894
[7], first compound 0.25 µg/mL | 0.77 | 0.873 | 0.854
[7], first compound 0.5 µg/mL | 0.515 | 0.362 | –

fitness, one replicate
Settings | first compound 0.125 µg/mL | first compound 0.25 µg/mL | first compound 0.5 µg/mL
[6], partner 0.5 µg/mL | 0.937 | 0.9 | 0.859
[6], partner 1 µg/mL | ≥ 1 | ≥ 1 | 0.89
[6], partner 2 µg/mL | 0.904 | 0.907 | 0.764
[7], partner 0.5 µg/mL | 0.981 | 0.86 | 0.728
[7], partner 1 µg/mL | 0.791 | 0.798 | 0.505

Cc1onc(-c2ccccc2)c1C(=O)N[C@@H]1C(=O)N2[C@@H]1SC(C)(C)[C@@H]2C(=O)O [Oxacillin] + CN[C@H](CC(C)C)C(=O)N[C@H]1C(=O)N[C@@H](CC(N)=O)C(=O)N[C@H]2C(=O)N[C@H]3C(=O)N[C@H](C(=O)N[C@H](C(=O)O)c4cc(O)cc(O)c4-c4cc3ccc4O)[C@H](O)c3ccc(c(Cl)c3)Oc3cc2cc(c3O[C@@H]2O[C@H](CO)[C@@H](O)[C@H](O)[C@H]2O[C@H]2C[C@](C)(N)[C@H](O)[C@H](C)O2)Oc2ccc(cc2Cl)[C@H]1O [Vancomycin]
Settings | Bliss interaction score
[1] | -0.0574
[2] | -0.302
[3] | -0.0696
[4] | -0.0751

Settings | fitness
[6], first compound 0.0156 µg/mL, partner 0.1875 µg/mL | 0.785
[6], first compound 0.0156 µg/mL, partner 0.375 µg/mL | 0.756
[6], first compound 0.0312 µg/mL, partner 0.1875 µg/mL | 0.715
[6], first compound 0.0312 µg/mL, partner 0.375 µg/mL | 0.724
[6], first compound 0.0312 µg/mL, partner 0.75 µg/mL | 0.712
[6], first compound 0.0625 µg/mL, partner 0.1875 µg/mL | 0.652
[6], first compound 0.0625 µg/mL, partner 0.375 µg/mL | 0.637
[7], first compound 0.0156 µg/mL, partner 0.1875 µg/mL | 0.776
[7], first compound 0.0156 µg/mL, partner 0.375 µg/mL | 0.867
[7], first compound 0.0156 µg/mL, partner 0.75 µg/mL | 0.81
[7], first compound 0.0312 µg/mL, partner 0.1875 µg/mL | 0.641
[7], first compound 0.0312 µg/mL, partner 0.375 µg/mL | 0.73
[7], first compound 0.0312 µg/mL, partner 0.75 µg/mL | 0.679
[7], first compound 0.0625 µg/mL, partner 0.1875 µg/mL | 0.519
[7], first compound 0.0625 µg/mL, partner 0.375 µg/mL | 0.516
[7], first compound 0.0625 µg/mL, partner 0.75 µg/mL | 0.564
[8], first compound 0.01 µg/mL, partner 0.03125 µg/mL | 0.988
[8], first compound 0.01 µg/mL, partner 0.0625 µg/mL | 0.906
[8], first compound 0.01 µg/mL, partner 0.25 µg/mL | 0.243
[8], first compound 0.01 µg/mL, partner 0.5 µg/mL | 0.0401
[8], first compound 0.02 µg/mL, partner 0.03125 µg/mL | 0.859
[8], first compound 0.02 µg/mL, partner 0.0625 µg/mL | 0.734
[8], first compound 0.02 µg/mL, partner 0.25 µg/mL | 0.149
[8], first compound 0.02 µg/mL, partner 0.5 µg/mL | 0.0421
[8], first compound 0.04 µg/mL, partner 0.03125 µg/mL | 0.271
[8], first compound 0.04 µg/mL, partner 0.0625 µg/mL | 0.18
[8], first compound 0.04 µg/mL, partner 0.125 µg/mL | 0.108
[8], first compound 0.04 µg/mL, partner 0.25 µg/mL | 0.101
[8], first compound 0.04 µg/mL, partner 0.5 µg/mL | 0.056

Cc1onc(-c2ccccc2)c1C(=O)N[C@@H]1C(=O)N2[C@@H]1SC(C)(C)[C@@H]2C(=O)O [Oxacillin] + Cn1nnc(-c2ccc(-c3ccc(N4C[C@H](CO)OC4=O)cc3F)cn2)n1 [Tedizolid]
Settings | Bliss interaction score
[1] | -0.0469
[2] | 0.0979
[3] | -0.0682
[4] | 0.0921

fitness
Settings | partner 0.03125 µg/mL | partner 0.0625 µg/mL | partner 0.125 µg/mL | partner 0.25 µg/mL | partner 0.5 µg/mL
[6], first compound 0.0156 µg/mL | – | 0.746 | 0.673 | 0.425 | –
[6], first compound 0.0312 µg/mL | – | 0.693 | 0.579 | 0.24 | –
[6], first compound 0.0625 µg/mL | – | 0.562 | 0.481 | 0.159 | –
[7], first compound 0.0156 µg/mL | – | 0.791 | 0.731 | 0.312 | –
[7], first compound 0.0312 µg/mL | – | 0.687 | 0.593 | 0.279 | –
[7], first compound 0.0625 µg/mL | – | 0.51 | 0.503 | 0.261 | –
[8], first compound 0.01 µg/mL | 0.974 | 0.931 | 0.851 | 0.683 | 0.336
[8], first compound 0.02 µg/mL | 0.935 | 0.933 | 0.835 | 0.644 | 0.39
[8], first compound 0.04 µg/mL | – | 0.728 | 0.614 | 0.468 | 0.157
